Literature values, collected in patent US6673373B2, “Antifungal formulation and the methods for manufacturing and using the same” (Carlsbad Technology Inc., priority 2001, dated 2004).

What was measured:
[1] = not given; remark: listed apart in the source
[2] = test system: plasma proteins
[3] = not given; remark: listed apart in the source

Molecule | antifungal activity in vitro | solubility in water [1] | binding rate with plasma proteins [2] [%] | time to reach peak concentration in plasma ([3]; after taken by the patients) [h] | concentration in blood as % of that in plasma ([3]; in vivo) | itraconazole in its original form excreted in feces ([3]; in vivo) | itraconazole in its original form secreted in urine ([3]; in vivo) [%] | plasma half life ([3]; in vivo) [h] | itraconazole metabolites secreted in urine ([3]; within a week after the uptake of the drug)
hydroxy-itraconazole | demonstrated in vitro to have antifungal activity | – | – | – | – | – | – | – | –
CCC(C)n1ncn(-c2ccc(N3CCN(c4ccc(OC[C@H]5CO[C@](Cn6cncn6)(c6ccc(Cl)cc6Cl)O5)cc4)CC3)cc2)c1=O (mixture of isomers) [itraconazole, (±)-cis-4-[4-[4-[4-[[2-(2,4-dichlorophenyl)-2-(1H-1,2,4-triazol-1-ylmethyl)-1,3-dioxolan-4-yl]methoxy]phenyl]-1-piperazinyl]phenyl]-2,4-dihydro-2-(1-methylpropyl)-3H-1,2,4-triazol-3-one] | – | less than 1 μg/ml | 99.8 | 3 to 4 | about 60% | 3-18% | ≤ 0.03 | 24 to 36 | About 35%
